# Target: T1, human DGAT1 (Homo sapiens, UniProt O75907)
# T1 construct: made in house; host or cells: Sf9 insect cells (baculovirus BAC-DGAT1, pFASTBAC1); microsome fraction
# T1 sequence (O75907 1-488): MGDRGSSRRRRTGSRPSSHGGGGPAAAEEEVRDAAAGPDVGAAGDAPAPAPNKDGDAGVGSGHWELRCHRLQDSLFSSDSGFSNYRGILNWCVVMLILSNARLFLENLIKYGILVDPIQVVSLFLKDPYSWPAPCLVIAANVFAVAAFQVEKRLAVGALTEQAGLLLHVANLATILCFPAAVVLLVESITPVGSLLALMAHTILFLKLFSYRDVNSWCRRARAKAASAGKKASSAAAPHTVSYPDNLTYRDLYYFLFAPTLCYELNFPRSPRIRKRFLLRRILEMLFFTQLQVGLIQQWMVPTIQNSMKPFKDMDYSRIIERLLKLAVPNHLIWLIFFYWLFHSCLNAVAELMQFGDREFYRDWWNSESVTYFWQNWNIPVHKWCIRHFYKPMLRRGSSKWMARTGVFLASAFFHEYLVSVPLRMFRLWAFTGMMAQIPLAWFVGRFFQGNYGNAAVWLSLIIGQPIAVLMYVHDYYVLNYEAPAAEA
# Test: DGAT inhibitory activity: [14C]-triglyceride synthesis with DGAT1 high expression Sf9 microsome
# Assay type: biochemical
# Settings: 25 μM dioleoylglycerol, 25 μM [14C]-Oleoyl-CoA, 32° C., 20 min, read-out: hDGAT1 IC50
# Protocol: The primer nucleotide sequence is shown below.
# The PCR reaction was conducted using a KOD-plus kit (TOYOBO). The obtained PCR product was electrophoresed on agarose gel (1%), the DNA fragment amplified by PCR was recovered from the gel, and then digested with restriction enzymes EcoRI and SpeI. […] Furthermore, using BAC-TO-BAC Baculovirus Expression System (Invitrogen), recombinant baculovirus BAC-DGAT1 was prepared.
# SF9 cells were sown at 1×10^6 cells/ml on Sf-900II SFM medium (1 L, Invitrogen) containing 10% fetal calf serum (Trace), 50 mg/L gentamicin (Invitrogen) and 0.1% Pluronic F-68 (Invitrogen), and shaking culture was performed using a 2 L volume Erlenmeyer flask at 27° C., 100 rpm. After culturing for 24 hrs, recombinant baculovirus BAC-DGAT1 (6.7 mL) was added, and the mixture was further cultured for 3 days. The culture medium was centrifuged at 2,000 rpm for 5 min to give virus-infected cells. The infected cells were washed with a phosphate buffered saline (Invitrogen), centrifuged under the same conditions, and the cells were preserved at −80° C. The cryopreserved cells were thawed in ice, suspended in buffer A (50 mM Tris buffer (30 mL, pH 7.4) containing 20% glycerol, 0.15 M NaCl) supplemented with Complete Protease Inhibitor (Boehringer), and ruptured 3 times with a Polytron homogenizer (Kinematica) at 20,000 rpm for 30 sec. The Sf9 microsome fractions were obtained by a conventional method and cryopreserved at −80° C. as a DGAT1 high expression Sf9 microsome.
# As a DGAT1 reaction buffer, a solution having a composition of 100 mM Tris-HCl (pH 7.5), 250 mM sucrose, 150 mM MgCl2, 0.01% bovine serum albumin (BSA) was used. […] A mixture of 300 μL of chloroform:methanol (=1:2) was added to the reaction mixture to quench the reaction. The reaction mixture was sufficiently mixed and distilled water (200 μL) was added to partition the mixture between a chloroform layer (lower layer) and an aqueous layer (upper layer). […] The developed TLC plate was dried, contacted with a BAS imaging plate (manufactured by FUJIFIIM) and measured with BAS2500 (manufactured by FUJIFILM) 16 hr later to numerically show the amount of [^14C]-triglyceride (TG amount) produced during the reaction. The inhibitory rate was calculated by the following formula:
# Inhibitory rate (%)=(1−(TG amount with addition of test compound−blank TG amount)/(control TG amount−blank TG amount))×100
# The count of the triglyceride produced in the solution reacted without addition of the compound was used as a “control TG amount”, and the count of the triglyceride produced in the solution reacted without addition of the test compound and DGAT1 high expression Sf9 microsome was used as a “blank TG amount”.
row,Compound,IC50
1,"O=C(NCCNC(=O)c1cn(C(=O)c2ccccc2)c2ccccc12)c1ccc(OCC(F)(F)F)nc1 [Example A82, 1-benzoyl-N-(2-(6-(2,2,2-trifluoroethoxy)nicotinamido)ethyl)-1H-indole-3-carboxamide]",< 100 nM
2,"COc1nn(-c2ccccc2)cc1C(=O)NCCNC(=O)c1ccc(OCC(F)(F)F)nc1 [Example A55, N-(2-(3-methoxy-1-phenyl-1H-pyrazole-4-carboxamido)ethyl)-6-(2,2,2-trifluoroethoxy) nicotinamide]",100 to 1000 nM
3,"CC(C)c1nc(-c2ccc(C(=O)NCCNC(=O)c3cn(-c4ccccc4)nc3C(F)(F)F)cn2)no1 [Example A103, 6-(5-isopropyl-1,2,4-oxadiazol-3-yl)-N-(2-(1-phenyl-3-(trifluoromethyl)-1H-pyrazole-4-carboxamido)ethyl)nicotinamide]",< 100 nM
4,"CN(C)CCNc1ccc(C(=O)NCCNC(=O)c2cn(-c3ccccc3)nc2C(F)(F)F)cn1 [Example A11, 6-(2-(dimethyl-amino)ethylamino)-N-(2-(1-phenyl-3-(trifluoromethyl)-1H-pyrazole-4-carboxamido)ethyl) nicotinamide]",1000 to 10000 nM
5,"CCCCc1ccc(C(=O)NCCNC(=O)c2cn(-c3ccccc3)nc2C(F)(F)F)nc1 [Example A24, 5-butyl-N-(2-(1-phenyl-3-(trifluoromethyl)-1H-pyrazole-4-carboxamido)ethyl)picolinamide]",100 to 1000 nM
6,"N#Cc1cc(C(=O)NCCNC(=O)c2cn(-c3ccccc3)nc2C(F)(F)F)cnc1OCC(F)(F)F [Example A87, 5-Cyano-N-(2-(1-phenyl-3-(trifluoromethyl)-1H-pyrazole-4-carboxamido)ethyl)-6-(2,2,2-trifluoroethoxy)nicotinamide]",100 to 1000 nM
7,"CN(C)c1nn(-c2ccccc2)cc1C(=O)NCCNC(=O)c1ccc(OCC(F)(F)F)nc1 [Example A58, N-(2-(3-(dimethylamino)-1-phenyl-1H-pyrazole-4-carboxamido)ethyl)-6-(2,2,2-trifluoroethoxy) nicotinamide]",1000 to 10000 nM
8,"O=C(NCCNC(=O)c1cn(-c2ccccc2)nc1C(F)(F)F)c1ccc(S(=O)(=O)c2ccccc2)nc1 [Example A86, N-(2-(1-Phenyl-3-(trifluoromethyl)-1H-pyrazole-4-carboxamido)ethyl)-6-(phenylsulfonyl)nicotinamide]",100 to 1000 nM
9,"O=C(NCCNC(=O)c1cn(-c2ccccc2)nc1C(F)(F)F)c1ccc(-n2cccn2)nc1 [Example A12, N-(2-(1-phenyl-3-(trifluoromethyl)-1H-pyrazole-4-carboxamido)ethyl)-6-(1H-pyrazol-1-yl) nicotinamide]",< 100 nM
10,"CN(C)c1ccc(C(=O)NCCNC(=O)c2cn(-c3ccccc3)nc2C(F)(F)F)cn1 [Example A15, 6-(dimethylamino)-N-(2-(1-phenyl-3-(trifluoromethyl)-1H-pyrazole-4-carboxamido)ethyl)nicotinamide]",100 to 1000 nM
11,"CC(=O)Nc1ccc(C(=O)NCCNC(=O)c2cn(-c3ccccc3)nc2C(F)(F)F)cn1 [Example A99, 6-Acetamido-N-(2-(1-phenyl-3-(trifluoromethyl)-1H-pyrazole-4-carboxamido)ethyl)nicotinamide]",1000 to 10000 nM
12,"O=C(NCCNC(=O)c1cn(-c2ccccc2)nc1C(F)(F)F)c1ccc(-c2ncon2)nc1 [Example A96, 6-(1,2,4-Oxadiazol-3-yl)-N-(2-(1-phenyl-3-(trifluoromethyl)-1H-pyrazole-4-carboxamido)ethyl)nicotinamide]",100 to 1000 nM
13,"O=C(NCCNC(=O)c1cn(-c2ccccc2)nc1C(F)(F)F)c1ccc(-c2noc(C(F)(F)F)n2)nc1 [Example A98, N-(2-(1-Phenyl-3-(trifluoromethyl)-1H-pyrazole-4-carboxamido)ethyl)-6-(5-(trifluoromethyl)-1,2,4-oxadiazol-3-yl)nicotinamide]",< 100 nM
14,"O=C(NCCNC(=O)c1cn(-c2ccccc2)nc1C(F)(F)F)c1ccc(OCCC(F)(F)F)nc1 [Example A42, N-(2-(1-phenyl-3-(trifluoromethyl)-1H-pyrazole-4-carboxamido)ethyl)-6-(3,3,3-trifluoropropoxy)nicotinamide]",< 100 nM
15,"CCCc1cc(CCC)c(C(=O)NCCNC(=O)c2cn(-c3ccccc3)nc2C(F)(F)F)cn1 [Example A76, N-(2-(1-phenyl-3-(trifluoro-methyl)-1H-pyrazole-4-carboxamido)ethyl)-4,6-di-propylnicotinamide]",100 to 1000 nM
16,"O=C(NCCNC(=O)c1cn(-c2ccccc2)c2ccccc12)c1ccc(OCC(F)(F)F)nc1 [Example A53, 1-phenyl-N-(2-(6-(2,2,2-trifluoroethoxy)nicotinamido)ethyl)-1H-indole-3-carboxamide]",< 100 nM

# Second part, the compound after the results:
row,IC50,Compound
1,100 to 1000 nM,"CCOc1ccc(C(=O)NCCNC(=O)c2cn(-c3cccc(OCC)n3)nc2C(F)(F)F)cc1 [B6, N-(2-(4-ethoxybenzamido)ethyl)-1-(6-ethoxypyridin-2-yl)-3-(trifluorometh-yl)-1H-pyrazole-4-carboxamide]"
2,100 to 1000 nM,CCOc1ccc(C(=O)NC[C@@H](NC(=O)c2cn(-c3ccccc3)nc2C(F)(F)F)C(=O)OC)cc1 [C15]
3,< 100 nM,"CCOc1ccc(C(=O)NCCNC(=O)c2cn(-c3ccc4[nH]ccc4c3)nc2C(F)(F)F)cc1 [Example B1, N-(2-(4-Ethoxybenzamido)ethyl)-1-(1H-indol-5-yl)-3-(trifluoromethyl)-1H-pyrazole-4-carboxamide]"
4,1000 to 10000 nM,"CCOc1ccc(C(=O)NCCNC(=O)c2nn(-c3ccccc3)nc2C)cc1 [Example D6, N-(2-(4-ethoxybenzamido)ethyl)-5-methyl-2-phenyl-1H-1,2,3-triazole-4-carboxamide]"
5,1000 to 10000 nM,"CCOc1ccc(C(=O)N2CCCC2CNC(=O)c2cn(-c3ccccc3)nc2C(F)(F)F)cc1 (stereo not shown) [Example C11, N-((1-(4-ethoxybenzoyl)pyrrolidin-2-yl)methyl)-1-phenyl-3-(trifluoromethyl)-1H-pyrazole-4-carboxamide]"
6,1000 to 10000 nM,"CCOc1ccc(C(=O)NCCNC(=O)c2cc(-c3ccccc3)cc(-c3ccccc3)n2)cc1 [Example D1, N-(2-(4-Ethoxybenzamido)ethyl)-4,6-diphenylpicolinamide]"

# From patent US20090286791A1, “Amide Compounds” (TAKEDA PHARMACEUTICAL COMPANY LIMITED, priority 2001, published 2009)
